In US20160324884A1, “TREATMENT OF DIABETES WITH PENTACYCLIC TRITERPENOID SAPONIN COMPOUNDS FROM SZECHUAN MELANDIUM ROOT” (priority 2013, published 2016):
“Also recorded” adds a separate entry of the source.

How the values were obtained:
KK^Ay mice [1] = assay: Effects of Wacao saponins on glycemia in KK^Ay T2DM mice (Example 2); assay type: in vivo
Description: (§1) 80 male KK^Ay mice (12 weeks of age, License NO. SCXK (BJ) 2009-0015, Beijing Huafukang Biology Technology Co. Ltd.) and 10 male normal C57BL/6 mice (12 weeks of age, License NO. SCXK (BJ) 2009-0015, Beijing Huafukang Biology Technology Co. Ltd.) were adaptively bred for one week, and then used in the pharmacological experiment.
The animals were housed individually in wood-chip-bedded plastic cages. Germ-free and high-fat diets (Beijing Huafukang Biology Technology Co. Ltd.) were used to feed the KK^Ay mice, and the standard laboratory chows were used to feed normal C57BL/6 mice. All the animals had free access to food and water.
80 KK^Ay mice were adaptively bred for 1 week, and then randomly assigned into 8 groups: Model group, Compound (1) group, Compound (2) group, Compound (3) group, Compound (4) group, Compound (7) group, Compound (8) group and metformin group, 10 mice per group. 10 normal C57BL/6 mice were used as the control group. KK^Ay mice were fed with the high-fat diet, and the control group was fed with the normal control diet. The control and model groups were hypodermically injected with sterile water, 6 medicated groups were hypodermically injected with 6 kinds of Wacao saponins, the Compounds (1), (2), (3), (4), (7) and (8), and the positive group (metformin group) was irrigated per oral. All groups were administrated at 9 am for 2 weeks. The administrating volume is 10 ml/kg BW and the administration dosage is shown in Table3.
All mice of the fasting tail blood glucose level were measured weekly using One Touch ULTRA Glucometer (Life Scan Johnson and Johnson, USA).
Each compound of Wacao saponins was dissolved into sterile water and sterilized with filtration for Sc. The metformin was dissolved into sterile water for lg. The control and model group mice were injected with sterile water, Sc. All the animals were treated at 9 am for 2 weeks.
Overnight fasting tail blood glucose level was measured weekly using One Touch ULTRA Glucometer and measured for twice.
Each group was administrated for 2 weeks (14 days) and then the experiment was terminated.
Results are expressed as means±SD. Statistical analysis were analyzed by using SPSS 10.0 software. Data were evaluated with analysis of variance.

KK^Ay mice [2] = assay: Glycemia in KK^Ay mice during treatment and after withdrawal (Example 3); assay type: in vivo
Description: as §1, with “60” for “80”, “10 normal” for “10”, “male” for “male normal”, “following” for “pharmacological”
60 KK^Ay mice were adaptively bred for 1 week, and then randomly assigned into 6 groups: Model group, Compound (1) group, Compound (2) group, Compound (3) group, Compound (4) group, and metformin group, 10 mice per group. 10 normal C57BL/6 mice were used for the control group. KK^Ay mice were in a high-fat diet, and the control normal mice were in a normal control diet. The control and model groups were hypodermically injected with sterile water, the 6 medicated groups mice were subcutaneously injected with […] Wacao saponins, (Compounds (1), (2), (3) and (4)) respectively, and the positive group was administered metformin by gavage. All mice were administrated at 9 am for 2 weeks and the administration volume is 10 ml/kg BW.
Compound (1), (2), (3) and (4) were respectively dissolved into sterile water, and sterilized with filtration for Sc. to the medication groups. The metformin was dissolved into sterile water for lg. to the positive control group. Control and model groups animals were injected with sterile water (10 ml/kg BW), Sc. All the animals were treated daily at 9 am for 2 weeks (14 days).
Blood detection: Blood glucose was measured weekly. Overnight fasting glycemia level was measured with One Touch ULTRA Glucometer for the tail blood test. At the end of the experiment, blood serum was collected for measuring levels of fasting blood glucose and insulin, and the insulin sensitivity index (ISI) was calculated. At the same time, hepatic tissues and skeletal muscles of mice were taken out to determine levels of hepatic and muscle glycogen by detection kits.
Termination of the experiment After administrating mice for 2 weeks (14 days), the experiment was terminated.
This experiment is to observe the anti-hyperglycemia effects of Wacao saponins on KK^Ay mice during and after the period of drug treatment, respectively.

T2DM rats = assay: Glycosylated serum protein (GSP) and liver and muscle glycogen in T2DM rats (Example 5); assay type: in vivo, SD rats; settings: 4.0 mg/kg Sc vs glucobay 20 mg/kg lg
Description: 50 SD rats were adaptively bred for 1 week, and then randomly assigned into 5 groups: The control group, model group, Compound (1) group, Compound (2) group and glucobay group (the positive group), 10 rats per group. All the animals were in a standard laboratory diet. Control and model group animals were hypodermically injected with sterile water, test compound treatment groups were subcutaneously injected with the Compounds (1) and (2), and the positive group was administrated glucobay solution by gavage. All the animals were administrated at 9 am for 2 weeks, and the dose volume is 10 ml/kg BW.
The Compounds (1) and (2) were dissolved into sterile water, and sterilized with filtration, Sc. Glucobay was dissolved into sterile water, lg. Animals in the control and model groups were injected with sterile water (10 ml/kg BW), Sc. All the animals were treated at 9 am for 2 weeks (14 days).
All rats except the control group were administrated intragastrically with the high-fat emulsion (10 ml/kg) and weighed the body weight weekly. After weeks of administration, rats were intraperitoneally injected with streptozotocin (STZ, dissolved in citric acid-citrate sodium solution, pH 4.2, freshly prepared and used instantly, and store away from light) (30mg/kg). 4 days later, blood glucose level in rats was measured by tail blood test. […]

## CC(=O)OC1C(OC(=O)/C=C/c2ccc(C)cc2)C(C)OC(OC(=O)[C@]23CCC(C)(C)C[C@H]2C2C=C[C@@H]4[C@@]5(C)CC[C@H](OC6OC(C(=O)O)C(O)C(OC7OCC(O)C(O)C7O)C6OC6OC(CO)C(O)C(O)C6O)[C@@](C)(C=O)[C@@H]5CC[C@@]4(C)[C@]2(C)C[C@H]3O)C1OC1OC(C)C(O)C(O)C1O (stereo partly drawn) [Compound (1), sinocrassuloside VI]
KK^Ay mice [1]; 2.0 mg/kg BW Sc daily, after 1 week, vs model group
  glycemia (fasting tail blood glucose), hypoglycemic activity: best hypoglycemic activity
KK^Ay mice [1]; 2.0 mg/kg BW Sc, 2 weeks, ranking
  anti-hyperglycemia effect, compounds compared with each other: strongest anti-hyperglycemia effect
KK^Ay mice [2]; KK^Ay mice, 2.0 mg/kg Sc, 2 weeks, comparison among compounds
  overall anti-diabetic effects: best anti-diabetic effects
KK^Ay mice [2]; KK^Ay mice, after stopping medication
  duration of hypoglycemic effect compared with metformin: lasts longer than that of metformin
KK^Ay mice [2]; T2DM mice, 2 mg/kg, two weeks after subcutaneous injection
  descending rates of blood glucose: 70%
T2DM rats
  effect on glycogen levels and GSP levels compared with glucobay: better effect on up-regulating of glycogen levels and down-regulating of GSP levels; also recorded: superior to that of glucobay; also recorded: stronger than glucobay
